Measurements: US20130317214A1, “METHOD FOR PRODUCING MALEATE USING WET CRYSTAL” (KYORIN PHARMACEUTICAL CO., LTD., priority 2010, published 2013)

Assays:
[1] = Stability test of compound (2) (physical properties); type: physicochemical; conditions: for physical properties when stored under a condition of 30° C.: storage time not given
[2] = Stability test of compound (2) (powder X-ray diffraction); type: physicochemical; conditions: sealed in a brown bottle, stored at 25° C. for 2 weeks and 4 weeks
Description: A filling section of a plate sample holder made of glass was filled with a sample, and powder x-ray diffraction of the sample was then measured using RINT2200 powder x-ray diffractometer manufactured by Rigaku Corporation.
Tube current: 36 mA Tube voltage: 40 kV Scanning rate: 2°/min wavelength: 1.5405 Å (Kα1), 1.5443 Å (Kα2), 1.3922 Å (Kβ1) Divergence slit: 1° Receiving slit: 0.15 mm Scattering slit: 1° Anticathode: copper Scanning range: 5 to 40°
The wet crystal of the compound (2) (Example 1) and the dried product (Reference Example 1) were each sealed in a brown bottle, and stored at 25° C. for 2 weeks and 4 weeks. After the storage, the powder x-ray diffraction of each sample was measured in accordance with the method of Test Example 1.

Row | Compound | physical properties on 3 days after the storage at 30° C. ([1]; sealed in a brown bottle, 3 days) | physical properties when stored under a condition of 30° C. [1] | crystal state by powder x-ray diffraction after storage [2]
1 | CCc1cc(OC)cc2nc(-c3cccnc3N3CC[C@H](N(C)C)C3)oc(=O)c12 [dried product of the compound (2)] | changed into a glassy mass | changed into a glassy solid | complete amorphous form
2 | CCc1cc(OC)cc2nc(-c3cccnc3N3CC[C@H](N(C)C)C3)oc(=O)c12 [wet crystal of the compound (2)] | – | the state of white powder was maintained | change in the crystal state of the wet crystal of the compound (2) was not observed
